The target of assay [1] is T1, purified human platelet αIIbβ3 (Homo sapiens, UniProt P05106+P08514).
T1 construct: detergent solubilized platelet lysates were passed over a Concanavalin A-Sepharose 4B column; from tissue; host or cells: human platelets (given as outdated human plasma; platelet lysates)
The assay is described as follows: Disassociation constants of GP IIb/IIIa antagonists on purified human αIIbβ3. It is filed as binding. The procedure:
GPIIb/IIIa was purified from outdated human plasma using a slight modification of the procedure described by Kouns et al. (Kouns et al. (1992) J. Biol. Chem. 267, 18844-18851). Briefly, detergent solubilized platelet lysates were passed over a Concanavalin A-Sepharose 4B column (Sigma Chemicals, St. Louis, Mo.), followed by elution with methyl-α-D mannopyranozide (Sigma Chemical, St. Louis, Mo.). […] All fractions were analyzed for purity by SDS-PAGE electrophoresis.

The test system of assay [2] is gel filtered platelets. The assay is described as follows: Platelet aggregation (lumiaggregometry). The class given is cell-based. The procedure:
Aggregation by platelets stir red (1000 rpm) at 37° C. was assayed using the Chrono-Log Lumiaggregometer. Antibody mAb3-758, mAb10-758 or mAb15-758 were added to 250 μL of 2×10^8 GFP/mL, in platelet buffer containing 2 mM CaCl, in the absence or presence of 20 μM ADP followed by the addition of 200 μg/mL fibrinogen. In some experiments PGE1, apyrase and PGI2 were included as activation inhibitors. Changes in light transmittance were recorded and transferred to Microsoft Excel for data plotting. For the determination of EC50 and IC50 of mAb3-758 and mAb10-758, respectively, control aggregations Pusing ADP alone were performed with each set of concentrations tested.

Assay [3] deals with T2, GPIIb/IIIa activation state on gel filtered platelets (Homo sapiens, UniProt P05106+P08514).
T2 construct: Gel filtered platelets (GFP) were prepared from blood anticoagulated with 13 mM trisodium citrate; endogenous in cells; host or cells: gel filtered platelets from citrated blood
T2 sequence (P08514 32-887 limits assumed): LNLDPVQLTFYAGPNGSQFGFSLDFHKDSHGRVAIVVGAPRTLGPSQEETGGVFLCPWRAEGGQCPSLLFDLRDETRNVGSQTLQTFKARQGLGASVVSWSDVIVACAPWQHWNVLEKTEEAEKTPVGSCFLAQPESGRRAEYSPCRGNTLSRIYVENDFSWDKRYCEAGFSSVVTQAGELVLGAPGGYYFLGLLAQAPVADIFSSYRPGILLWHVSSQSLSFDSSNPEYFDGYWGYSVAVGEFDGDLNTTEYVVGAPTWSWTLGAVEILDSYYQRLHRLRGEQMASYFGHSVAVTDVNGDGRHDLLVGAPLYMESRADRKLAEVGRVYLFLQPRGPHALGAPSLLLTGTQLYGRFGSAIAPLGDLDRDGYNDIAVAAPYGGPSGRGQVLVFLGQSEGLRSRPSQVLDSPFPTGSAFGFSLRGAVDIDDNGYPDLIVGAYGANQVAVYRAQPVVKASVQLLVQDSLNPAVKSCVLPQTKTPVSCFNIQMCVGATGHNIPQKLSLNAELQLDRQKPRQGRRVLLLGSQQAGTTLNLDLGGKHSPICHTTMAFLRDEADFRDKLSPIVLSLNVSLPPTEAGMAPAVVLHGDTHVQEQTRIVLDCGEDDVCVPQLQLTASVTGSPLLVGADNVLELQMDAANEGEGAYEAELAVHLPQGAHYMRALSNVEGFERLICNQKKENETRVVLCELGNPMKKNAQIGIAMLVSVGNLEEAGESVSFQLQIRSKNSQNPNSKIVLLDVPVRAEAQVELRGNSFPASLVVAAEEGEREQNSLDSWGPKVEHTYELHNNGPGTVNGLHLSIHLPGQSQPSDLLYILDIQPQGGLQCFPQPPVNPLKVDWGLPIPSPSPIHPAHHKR
T2 sequence (P08514 891-1039 partner limits assumed): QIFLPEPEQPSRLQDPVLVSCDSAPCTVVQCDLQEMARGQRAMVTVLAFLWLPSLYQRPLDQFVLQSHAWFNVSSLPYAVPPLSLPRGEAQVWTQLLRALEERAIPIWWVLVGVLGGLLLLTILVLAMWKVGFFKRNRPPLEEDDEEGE
T2 sequence (P05106 27-788): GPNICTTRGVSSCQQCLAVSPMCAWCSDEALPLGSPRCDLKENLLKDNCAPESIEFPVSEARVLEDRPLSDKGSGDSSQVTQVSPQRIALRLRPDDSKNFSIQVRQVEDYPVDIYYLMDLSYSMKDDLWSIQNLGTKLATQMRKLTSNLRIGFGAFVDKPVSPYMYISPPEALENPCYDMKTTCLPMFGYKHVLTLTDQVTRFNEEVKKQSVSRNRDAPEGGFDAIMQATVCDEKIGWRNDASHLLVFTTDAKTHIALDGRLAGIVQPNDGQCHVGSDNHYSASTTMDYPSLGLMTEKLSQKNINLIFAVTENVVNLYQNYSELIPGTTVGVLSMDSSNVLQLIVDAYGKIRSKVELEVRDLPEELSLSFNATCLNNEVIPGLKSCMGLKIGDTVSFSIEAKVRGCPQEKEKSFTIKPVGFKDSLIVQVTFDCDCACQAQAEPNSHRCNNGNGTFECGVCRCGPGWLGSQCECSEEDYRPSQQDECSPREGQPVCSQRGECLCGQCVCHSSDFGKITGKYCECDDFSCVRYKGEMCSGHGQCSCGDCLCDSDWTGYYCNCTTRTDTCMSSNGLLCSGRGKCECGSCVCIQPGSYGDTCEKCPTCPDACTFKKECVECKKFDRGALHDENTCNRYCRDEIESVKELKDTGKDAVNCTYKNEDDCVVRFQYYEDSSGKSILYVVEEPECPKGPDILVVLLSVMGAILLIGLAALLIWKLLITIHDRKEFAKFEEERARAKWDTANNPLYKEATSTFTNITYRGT
The assay is described as follows: PAC-1 binding to gel filtered platelets. The class given is cell-based. To be noted: PGE1, PGI2 and apyrase prior to antibody or agonist. How it is done:
PAC-1 (Shattil et al. (1985) J. Biol. Chem. 260, 11107-11114) binding studies were done using 20 μg/mL FITC conjugated PAC-1 (University of Pennsylvania Cell Center (Philadelphia, Pa.)) diluted in PBS. 25 μL of resting 1×10^8 GFP/mL, in flow cytometry buffer containing 1 mM CaCl, was combined with 100 nM of antibody and FITC conjugated PAC-1 to a final volume of 100 μL. The sample was incubated for 1 hour at room temperature. Following incubation the cells were diluted to 300 μL in flow cytometry buffer immediately before flow cytometry analysis. Contol PAC-1 binding to activated platelets was tested by first activating the receptors with either 1 nM thrombin or 20 μM ADP. Some samples were pretreated with activation inhibitors 100 μM PGE1, 20 μg/ml apyrase (Sigma Chemical Company (St. Louis, Mo.)) and 10 μM PGI2 (BioMol (Plymouth Meeting, Pa.)) prior to antibody addition or platelet activation with ADP or thrombin.

In assay [4] the target is T3, GPIIb/IIIa on gel filtered platelets (Homo sapiens, UniProt P05106+P08514).
T3 construct: Gel filtered platelets (GFP) were prepared from blood anticoagulated with 13 mM trisodium citrate; endogenous in cells; host or cells: gel filtered platelets from citrated blood
T3 sequence (P08514 32-887 limits assumed): as the sequence (P08514 32-887 limits assumed) above
T3 sequence (P08514 891-1039 partner limits assumed): as the sequence (P08514 891-1039 partner limits assumed) above
T3 sequence (P05106 27-788): as the sequence (P05106 27-788) above
The assay is described as follows: Flow cytometry binding assay on platelets: effect of receptor occupancy or ADP activation on antibody binding. Conditions: GFP pretreated with 1 μM ligand, 100 nM antibody. The procedure:
The platelet bound antibodies were separated from free antibodies by centrifugation in the presence of 100 μM PGE1 followed by resuspension in flow cytometry buffer containing 100 nM of FITC conjugated goat anti-mouse antibody, incubated for 1 hour at room temperature and analyzed using flow cytometry. The light scatter and fluorescence intensity of 20000 cells was collected using logarithmic gain.

Setting [5] is: activated form of purified human αIIbβ3, read-out: Activated Form KD-A.
[6] abbreviates: unactivated form of purified human αIIbβ3, read-out: Unactivated Form KD-B.
Setting [7] is: Activated Form KD-A, activated form of purified human αIIbβ3.
The mark [8] stands for this setting: Unactivated Form KD-B, unactivated form of purified human αIIbβ3.

Entries after “also recorded” stand apart in the source; their conditions may differ. Where a name gives a salt, the structure may show the parent alone. Read-outs that look alike come from different tables or passages of the source. Bridge positions count the residues as written; N and C are the ends. Ends that are not written are not given here. Peptide text beside a SMILES is read from it. * marks the point of attachment. Benzoyl(4-I) = O=C(c1ccc(I)cc1)*

Results on seven compounds are retold here after patent publication US6538112B2, “Hybridomas and monoclonal antibodies for an anticoagulant test” (Merck & Co., Inc., priority 1997, dated 2003).

T1 sequence (P08514 32-887 limits assumed): as the sequence (P08514 32-887 limits assumed) above
T1 sequence (P08514 891-1039 partner limits assumed): as the sequence (P08514 891-1039 partner limits assumed) above
T1 sequence (P05106 27-788): as the sequence (P05106 27-788) above

As to `O=C(NC[C@H](NS(=O)(=O)c1cccnc1)C(=O)O)c1cc2cc(CCC3CCNCC3)sc2s1` [compound D, 2-(S)-(3-pyridylsulfonyl)amino-3-N-[5-[2-(4-piperidinyl)ethyl]-thienothiophene-2-carboxamide]propionic acid], the Kd amounted to 0.03 nM in assay [1] (setting [5]) and 2.4 nM in assay [1] (setting [6]).

As for `C[C@H](CC(=O)O)NC(=O)CN1CCC[C@@H](CCC2CCNCC2)C1=O` [compound C, N-[3(R)-[2-(Piperidin-4-yl)ethyl]-2-piperidon-1-yl] acetyl-3(R)-methyl-β-alanine], the Kd in assay [1] (setting [5]) stood at 4.5 nM; in assay [1] (setting [6]), 610 nM.

On to `Nc1ncnc2c1ncn2[C@@H]1O[C@H](COP(=O)(O)OP(=O)(O)O)[C@@H](O)[C@H]1O` [ADP], for which the “platelet aggregation response stimulated by the substance alone” value in assay [2] (100 nM mAb10-758, 1 μM mAb15-758, 20 μM ADP, control platelets) was found to be 69.6%. Besides, the “aggregation response following incubation with fibrinogen receptor antagonist” value in assay [2] (10 μM of antagonist) came out at 2.5%. Besides, the EC50 in assay [2] (GFP with fibrinogen, read-out: EC50 ADP stimulated platelet aggregation) stood at 1700 nM. Moreover, the “aggregation response of platelets pretreated with activation inhibitors” value in assay [2] (mixture of PGE1, PGI2 and apyrase, 100 nM mAb10-758, 1 μM mAb15-758) came to 3.3%. Further, in assay [2] (no antagonist), the “aggregation response in control platelets of the antagonist experiment” value is 69.6%. Also, the “PAC-1 binding after pretreatment with activation inhibitors” value in assay [3] was “completely blocked”.

In the case of `N=C(N)NCCC[C@@H]1NC(=O)[C@@H]2CCCN2C(=O)[C@H](CC(N)=O)NC(=O)[C@@H](NC(=O)c2ccc(I)cc2)CSSC[C@@H](C(=O)O)NC(=O)[C@H](CC(=O)O)NC(=O)CNC1=O` [compound B, cyclo-4-I-benzoyl-(Cys-Asn-Pro-Arg-Gly-Asp-Cys)-OH HOAc salt] ({Benzoyl(4-I)}-CNPRGDC-OH; disulfide 1-7 (inferred)), the values for the Kd in assay [1] (setting [7]) and in assay [1] (setting [8]) were 1.5 nM and 60 nM, respectively.

As to `N=C(N)c1ccc(C(=O)NC(Cc2ccc(O)cc2)C(=O)N2CCC(OCC(=O)O)CC2)cc1` (stereo not shown) [RO-44-9883, {1-[2-(4-carbamimidoyl-benzoylamino)3-(4-hydroxy-phenyl)propionyl]-piperidin-4-yloxy}-acetic acid], the “induction of the neo-epitope recognized by anti-LIBS mAb10-758 and mAb15-758” value in assay [4] is “induced; also recorded: induce the neo-epitope”. Also, the dissociation constant (Kd) in assay [1] (setting [5]) amounted to 0.96 nM; in assay [1] (setting [6]), 6.3 nM.

Regarding `O=C(O)COc1ccc2c(c1)CN(C(=O)c1ccc(N3CCNCC3)cc1)CC2` [compound A, 4-(N-piperazine)benzoyl-(N-1,2,3,4-tetrahydroisoquinoline-7-yl)oxy-acetic acid], the Kd in assay [1] (setting [5]) and in assay [1] (setting [6]) was over 100000 nM in each case.

Take “ECESGPCCRNCKFLKEGTICKRARGDDMDDYCNGKTCDCPRNPHKGPAT (disulfide 2-11, 7-32, 8-37, 20-39 (inferred)) [echistatin]”: the Kd was 4.6 nM in assay [1] (setting [7]) and 4.9 nM in assay [1] (setting [8]).

As a reminder, the Kd is the equilibrium constant for the complex coming apart. In general, EC50 refers to the concentration giving half of the maximal effect.
